Assays:
[1] = test system: HIV LTR luciferase (Tat/AcTat transactivation); assay: Nuclear microinjection of synthetic Tat or AcTat with HIV LTR luciferase reporter into HeLa cells; type: cell-based; settings: for basal HIV promoter activity / transcriptional activity of AcTat (transactivation of the HIV promoter): TSA 400 nM or nicotinamide 5 mM for four hours, siRNA 48 hours before microinjection
Description: Subconfluent MEFs (70%) were grown on Cellocate coverslips (Eppendorf, Westbury, N.Y.), and nuclear microinjections were performed at room temperature with an automated injection system (Eppendorf Micromanipulator 5171 together with Eppendorf Transjector 5246). Samples were prepared as a 20 μl injection mix containing the HIV LTR luciferase reporter or 5xUAS luciferase (each 100 ng/μl), RSV-Tat (10 ng/μl) or Ga14-VP16 (50 ng/μl), CMV-CyclinT1 (100 ng/μl), CMV-SIRT1 (100 or 300 ng/μl) together with CMV-GFP (50 ng/μl) in sterile water. Six hours after microinjection, cells were examined under a Nikon Eclipse TE300 inverted fluorescent microscope to determine the number of GFP-positive cells, washed in cold phosphate buffer, and stored at −70° C. for luciferase assays (Promega). In HeLa cells, synthetic Tat or AcTat proteins (each 30 or 100 ng/μl) were co-injected with the wildtype or mutant HIV LTR luciferase reporters (each 100 ng/μl) together with CMV-GFP (50 ng/μl) and harvested four hours after injection. Cells were treated immediately after injection with 5,6-dichlorobenzimidazole riboside (DRB; 10 or 50 μM; Sigma), TSA (400 nM), or nicotinamide (5 mM). Microinjections in siRNA-treated cells were performed 48 hours after siRNA transfection.

[2] = test system: EF-1α promoter GFP expression; assay: HIV-based lentiviral vector with EF-1α promoter driving GFP in Jurkat T cells; type: cell-based; settings: 1 μM, 36 hours
Description: (§1) The HIV molecular clone (HIV-R7/E^−/GFP) containing the GFP open reading frame in place of the nef gene and a frameshift mutation in the env gene as well as the method to generate pseudotyped viral particles with VSV-G was previously described. Jordan et al. (2003) Embo J 22: 1868-1877. The number of infective particles per ml was established by infecting 3×10^5 Jurkat cells with different amounts of viral suspension. The titer of the viral stock was measured by flow cytometry analysis of GFP expression 48 hours after infection. The pHR′-EF-1α/GFP construct is a minimal nonreplicative HIV-1 genome containing a heterologous promoter (EF-1α) driving GFP expression. Naldini et al. (1996) Science 272: 263-267. […]. Zufferey et al. (1997) Nat Biotechnol 15: 871-875. All vectors for the production of HIV-based lentiviral vectors were provided by D. Trono, University of Geneva, Switzerland. Jurkat T cells were incubated overnight with HIV-R7/E^−/GFP or pHR′-EF-1α/GFP viral particles at a theoretical multiplicity of infection (m.o.i.) of 0.5 in 24-well plates. […] Viral infection was monitored 36 hours later by flow cytometry analysis using a Calibur FACScan (Becton Dickinson).

[3] = test system: p53; assay: p53 acetylation; type: cell-based; settings: 1 μM
[4] = test system: HIVNL4-3 containing the GFP open reading frame in place of nef; assay: Single-cycle HIV infection of Jurkat T cells, GFP expression by flow cytometry; type: cell-based; settings: 1 μM, 36 hours after overnight infection
Description: as §1

[5] = test system: RSV LTR; assay: RSV luciferase control reporter in transfected HeLa cells; type: cell-based, Rous sarcoma virus; settings: 1 μM
Description: (§2) In co-transfection experiments, human CMV-SIRT1 or CMV-SIRT1H363Y (600 ng) was co-transfected into HeLa cells plated in six-well plates with the HIV LTR luciferase reporter (200 ng) or the LTRΔNF-kB-luciferase reporter (200 ng) and increasing amounts of RSV-Tat (0 ng, 2 ng, 20 ng, and 200 ng) using the lipofectamine reagents (Invitrogen). In the control experiment, RSV-Tat was replaced by RSV luciferase (200 ng), and the HIV LTR luciferase construct was replaced by the HIV LTR CAT reporter. […] The RSV-luciferase construct was used as described above. […] Cells were harvested 8 hr later and processed for luciferase assays.

[6] = test system: Tat-dependent HIV transcription (HIV LTR luciferase); assay: Tat transactivation of HIV LTR luciferase reporter in transfected HeLa cells; type: cell-based; settings: ~1 μM, 8 hours
Description: as §2

[7] = molecular target: T1, SIRT1 (Homo sapiens, UniProt Q96EB6); assay: In vitro Tat deacetylation assay with immunoprecipitated SIRT1; type: biochemical; settings: immunoprecipitated SIRT1, AcTat, NAD+; western blot α-AcTat; nicotinamide 5 mM, TSA 400 nM
T1 construct: made in house; host or cells: 293 cells (HEK 293), transient transfection, anti-FLAG M2 agarose immunoprecipitate
T1 sequence (Q96EB6 1-747): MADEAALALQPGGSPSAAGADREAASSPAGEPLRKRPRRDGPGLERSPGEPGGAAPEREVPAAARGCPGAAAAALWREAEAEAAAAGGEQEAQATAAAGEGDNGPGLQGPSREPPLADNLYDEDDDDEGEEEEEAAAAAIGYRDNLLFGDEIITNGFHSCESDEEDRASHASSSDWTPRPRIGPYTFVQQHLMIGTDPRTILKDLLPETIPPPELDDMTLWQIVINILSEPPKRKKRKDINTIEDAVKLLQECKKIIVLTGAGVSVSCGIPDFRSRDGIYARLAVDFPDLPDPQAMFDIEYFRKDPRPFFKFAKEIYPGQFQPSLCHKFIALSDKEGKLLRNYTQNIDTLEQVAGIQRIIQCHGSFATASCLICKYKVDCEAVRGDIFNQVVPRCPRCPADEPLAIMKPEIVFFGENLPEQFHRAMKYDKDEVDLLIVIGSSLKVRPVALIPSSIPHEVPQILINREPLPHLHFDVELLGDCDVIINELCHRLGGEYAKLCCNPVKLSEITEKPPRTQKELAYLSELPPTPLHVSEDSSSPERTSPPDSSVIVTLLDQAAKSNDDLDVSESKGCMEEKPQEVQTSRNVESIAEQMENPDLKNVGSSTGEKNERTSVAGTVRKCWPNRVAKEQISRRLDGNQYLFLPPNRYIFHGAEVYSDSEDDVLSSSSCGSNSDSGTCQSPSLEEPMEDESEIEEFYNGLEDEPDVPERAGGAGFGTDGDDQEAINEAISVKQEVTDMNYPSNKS
Description: Human SIRT1-7 FLAG-tagged plasmids were transfected in 293 cells with lipofectamine reagent (Invitrogen). Cells were lysed 24 hours after transfection with lysis buffer (50 mM Tris-Hcl, pH 7.5, 0.5 mM EDTA, 0.5% NP40, 150 mM NaCl) in the presence of protease inhibitors (Roche Molecular Biochemicals, Indianapolis, Ind.). Equal amounts of total proteins were immunoprecipitated with α-FLAG (anti-FLAG antibody) coupled to M2 agarose beads (Sigma, St Louis, Mo.), for 2 hours at 4° C. Immunoprecipitated material was washed twice with immunoprecipitation (IP) buffer and one time with SIRT deacetylation buffer (50 mM Tris-HCl pH 9, 4 mM MgCl2, 0.2 mM DTT). The beads were resuspended in 100 μl SIRT deacetylation buffer containing 1 μg synthetic Tat (72 amino acids) carrying an N-terminal biotin label and an acetyl group at position 50. Kaehlcke et al. (2003), supra. Reactions containing TSA (400 nM, WACO Bioproducts, Richmond, Va.) or nicotinamide (5 mM, Sigma) were preincubated for 10 min at room temperature. […] Reactions were stopped by the addition of SDS loading buffer, boiled, and after brief centrifugation, analyzed by western blotting with rabbit α-AcTat antibodies (Kaehlcke et al. (2003), supra) or horseradish peroxidase-conjugated streptavidin (Jackson Immunoresearch Laboratories, West Grove, Pa.). SIRT1-7 proteins were detected with polyclonal α-FLAG antibodies (Sigma).

| Structure (SMILES) | basal HIV promoter activity [1] | transcriptional activity of AcTat (transactivation of the HIV promoter) [1] | SIRT1-mediated deacetylation of Tat [7] | further results |
| --- | --- | --- | --- | --- |
| OC[C@H]1O[C@@H](n2cnc3cc(Cl)c(Cl)cc32)[C@H](O)[C@@H]1O [DRB, 5,6-dichlorobenzimidazole riboside] |  |  |  | transactivation by both Tat proteins (Tat and AcTat) ([1]; DRB 10 or 50 μM, four hours): inhibited in a dose-dependent manner |
| O=C1Oc2ccc3cc(Br)ccc3c2CC1c1ccccc1 (stereo not drawn) [HR73] |  |  |  | GFP expression from the EF-1α promoter [2]: not affected; acetylation of p53 [3]: induced hyperacetylation; reduction of HIV gene expression as measured by GFP expression [4]: 5 fold; activity of the RSV LTR [5]: did not suppress; suppression of Tat-dependent HIV transcription [6]: 3 fold |
| CC(/C=C/C(=O)NO)=C\[C@@H](C)C(=O)c1ccc(N(C)C)cc1 [TSA] | enhanced | enhanced | no effect |  |
| NC(=O)c1cccnc1 [nicotinamide] | stimulating | blocked | completely inhibited |  |

From patent US20100160262A1, “COMPOSITIONS AND METHODS FOR MODULATING SIRTUIN ACTIVITY” (priority 2008, published 2010)
